Laboratory results published in publication PMC6940912, “Novel Drug-Like Somatostatin Receptor 4 Agonists are Potential Analgesics for Neuropathic Pain” (International Journal of Molecular Sciences, 2019).

Columns and labels:
[1] = parameters: method as in PMID 30232095; conditions: native peptide ref 9; cited from earlier work
Male NMRI mice [2] = test system: Male NMRI mice; parameters: method as in PMID 16697366, PMID 12122501; conditions: 10–100 µg/kg i.p. ref 15, 27; cited from earlier work
sst4 receptor = target: T1, sst4 receptor (Homo sapiens, UniProt P31391); test: sst4 receptor-linked G-protein activation, [35S]GTPγS binding assay on membranes of sst4-expressing CHO cells; type: biochemical
T1 construct: expressed in transfected cells; host or cells: CHO cells
T1 sequence (P31391 whole entry): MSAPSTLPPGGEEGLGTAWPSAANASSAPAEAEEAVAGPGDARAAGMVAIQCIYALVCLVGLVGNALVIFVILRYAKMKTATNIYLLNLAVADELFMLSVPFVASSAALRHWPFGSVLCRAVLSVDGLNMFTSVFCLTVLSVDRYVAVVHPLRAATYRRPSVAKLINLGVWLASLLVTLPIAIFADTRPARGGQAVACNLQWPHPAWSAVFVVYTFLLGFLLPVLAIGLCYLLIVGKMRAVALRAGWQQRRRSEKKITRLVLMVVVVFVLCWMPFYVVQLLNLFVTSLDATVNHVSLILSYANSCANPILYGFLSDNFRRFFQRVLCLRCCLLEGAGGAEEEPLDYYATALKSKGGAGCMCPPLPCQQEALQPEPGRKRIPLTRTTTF
Method: Membrane fractions were prepared from CHO cells, which express the sst4 receptor, in Tris–ethylene glycol-bis(2-aminoethyl)tetraacetic acid (Tris–EGTA) buffer (50 mM Tris–HCl (Sigma, St. Louis, MO, USA), 1 mM EGTA (Sigma, St. Louis, MO, USA), 3 mM MgCl2 (Sigma, St. Louis, MO, USA), 100 mM NaCl (Sigma, St. Louis, MO, USA), pH 7.4, 10 μg of protein/sample). The fractions were incubated in the buffer containing 0.05 nM guanosine triphosphate (GTP) (BioChemica International Inc., Melbourne, Florida, USA), labeled on the gamma phosphate group with ^35S ([^35S]GTPγS) (Isotop Institute, Budapest, Hungary) and increasing concentrations (1 nM to 10 µM) of C1, C2, C3 and C4 compounds for 60 min at 30 °C, in the presence of 30 μM guanosine diphosphate (GDP) (Sigma, St. Louis, MO, USA). We determined the nonspecific binding in the presence of 10 μM unlabeled GTPγS and total binding in the absence of test compounds. Samples were filtrated through Whatman GF/B glass fiber filters using 48-well Slot Blot Manifold from Cleaver Scientific (Cleaver Scientific Ltd., Rugby, Warwickshire, United Kingdom). Filters were washed with ice-cold 50 mM Tris–HCl buffer (pH 7.4) and radioactivity was measured in a β-counter (PerkinElmer Inc., Waltham, MA, USA). The test-compound-induced G-protein activation was given as percentage over the specific [^35S]GTPγS binding detected in the absence of agonists.
(§1) In the sst4 receptor activation assay, all the compounds were dissolved in dimethyl sulfoxide (DMSO) (Szkarabeusz Ltd., Pécs, Hungary). The concentration of the stock solutions was 10 mM and was diluted with distilled water to reach the final concentrations. For the in vivo experiments, 1 mg of the compounds was rubbed dry in a braying mortar, suspended thoroughly in 1 mL 1.25% methylcellulose (MC) (Pharmacy of University of Pécs, Pécs, Hungary) solution and then dissolved in sterile bidistilled water to get a 1000 µg/mL stock solution freshly every experimental day. Most microsuspensions looked opalescent; they were shaken properly, sonicated, and further diluted with 1.25% MC to obtain the 25 µg/mL solution for oral administrations (0.2 mL/10 g body weight for the 500 µg/kg dose). The solutions were shaken and sonicated again directly before use. The vehicle was always 1.25% MC dissolved in sterile bidistilled water.

Male NMRI mice [3] = test: RTX-induced acute neurogenic inflammatory thermal allodynia and mechanical hyperalgesia; type: in vivo, mouse; conditions: oral pretreatment 1 h before intraplantar RTX, printed dose 500 µg/kg
Method: The investigated compounds (500 µg/kg p.o.) or the vehicle were administered orally 1 h before the induction of the acute neurogenic inflammation by intraplantar RTX (Sigma, St. Louis, MO, USA) injection (20 µL, 0.1 µg/mL) into the right hindpaw. RTX evokes an acute neurogenic inflammatory reaction with the development of a rapid thermal allodynia, mainly due to peripheral sensitization mechanisms, and a later developing mechanical hyperalgesia due also to central sensitization. The nociceptive heat threshold was determined before (control) and 10, 20 and 30 min after RTX administration with an increasing-temperature hot plate (IITC Life Science, Woodland Hills, CA, USA). […] The mechanonociceptive threshold was measured with an electronic von Frey device (dynamic plantar aesthesiometer (DPA), Ugo Basile, Comerio, Italy) prior to RTX injection and 30, 60 and 90 min afterwards. The measurement at 30 min was performed immediately after the last heat threshold measurement. The experiment consisted of two separate series on consecutive days and the number of animals in the control group was six per day. Therefore, the control group contained 12 mice, and six and five mice were used in the C1- and C2-treated groups, respectively.
as §1
Male NMRI mice (8–12 weeks old) bred in the Laboratory Animal House of the Department of Pharmacology and Pharmacotherapy of the University of Pecs were kept in standard plastic cages at 24–25 °C, under a 12–12 h light–dark cycle and provided with standard rodent chow and water ad libitum. […]

Male NMRI mice [4] = test: Partial sciatic nerve ligation-induced chronic traumatic neuropathic mechanical hyperalgesia; type: in vivo, mouse
Method: After conditioning and two control mechanonociceptive measurements on 2 consecutive days, mice were anaesthetized by the combination of ketamine (100 mg/kg, i.p.) and xylazine (10 mg/kg, i.p.). Traumatic mononeuropathy was achieved by one-third to one-half part ligation of the right sciatic nerve. Significant decrease in the mechanical threshold develops 7 days after operation. The mechanonociceptive threshold of the plantar surface of the hindpaws was measured by DPA on the 7th postoperative day. The paw withdrawal threshold was obtained in grams (the maximal value was 10 g; ramp time of 4 s). The compounds (500 µg/kg) or the vehicle were administered orally on day 7, one hour before the repeated measurement. The experiment consisted of separate series on 3 consecutive days, and there were 2–3 vehicle-treated control animals in every series. Therefore, each group contained 8 mice.
as §1
Male NMRI mice (8–12 weeks old) bred in the Laboratory Animal House of the Department of Pharmacology and Pharmacotherapy of the University of Pecs were kept in standard plastic cages at 24–25 °C, under a 12–12 h light–dark cycle and provided with standard rodent chow and water ad libitum. All experimental procedures complied with the recommendations of the 1998/XXVIII Act of the Hungarian Parliament on Animal Protection and Consideration Decree of Scientific Procedures of Animal Experiments (63/2010) and were approved by the Ethics Committee on Animal Research of Pecs University according to the Ethical Codex of Animal Experiments; license was given (license No. BA1/35/55-50/2017). We made all efforts to minimize the number and suffering of the animals used in this study.

Ca2+ channel = test: Selectivity profile (Eurofins Cerep), radioligand binding; conditions: 1 µM, % inhibition of binding of radiolabeled ligand
Method: (§2) The evaluation was performed by Eurofins Cerep (France). Compound binding was calculated as a % inhibition of the binding of a radioactively labeled ligand specific for each target. Enzyme inhibition effect was calculated as a % inhibition of control enzyme activity. Cellular agonist effect was calculated as a % of control response to a known reference agonist for each target, and cellular antagonist effect was calculated as a % inhibition of control reference agonist response for each target. In each experiment the respective reference compound was tested concurrently with Compound 1 [71, 72, 73, 74, 75, 76, 77, 78]. See in Supplementary Materials.

K+ channel hERG = target: T2, K+ channel hERG (Homo sapiens, UniProt Q12809); test: as above; conditions: 1 µM, % inhibition of binding of radiolabeled ligand
T2 construct: Eurofins Cerep (contract assay)
Method: as §2

COX-2 = target: T3, COX-2 (Homo sapiens, UniProt P35354); test: Selectivity profile (Eurofins Cerep), enzyme inhibition; type: biochemical; conditions: % inhibition of control enzyme activity, read-out: Enzymatic Activity (%)
T3 construct: Eurofins Cerep (contract assay)
T3 sequence (P35354 18-604): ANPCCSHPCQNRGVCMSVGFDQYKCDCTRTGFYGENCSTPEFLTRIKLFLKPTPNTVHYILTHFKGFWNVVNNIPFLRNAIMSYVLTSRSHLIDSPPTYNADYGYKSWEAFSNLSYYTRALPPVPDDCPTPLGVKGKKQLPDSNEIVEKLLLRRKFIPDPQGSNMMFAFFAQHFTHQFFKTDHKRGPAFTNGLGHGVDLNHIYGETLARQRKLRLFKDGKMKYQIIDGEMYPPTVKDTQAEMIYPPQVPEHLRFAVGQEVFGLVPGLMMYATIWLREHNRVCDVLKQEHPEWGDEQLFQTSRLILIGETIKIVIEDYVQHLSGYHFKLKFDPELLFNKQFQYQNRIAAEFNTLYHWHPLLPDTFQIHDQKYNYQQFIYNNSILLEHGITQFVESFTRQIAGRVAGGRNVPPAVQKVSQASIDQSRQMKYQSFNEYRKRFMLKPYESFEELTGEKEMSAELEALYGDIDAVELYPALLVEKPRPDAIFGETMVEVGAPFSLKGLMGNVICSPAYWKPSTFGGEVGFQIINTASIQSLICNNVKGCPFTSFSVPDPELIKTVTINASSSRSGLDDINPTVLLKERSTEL
Method: as §2

MAOA = target: T4, MAOA (Homo sapiens, UniProt P21397); test: as above; type: biochemical; conditions: % inhibition of control enzyme activity, read-out: Enzymatic Activity (%)
T4 construct: Eurofins Cerep (contract assay)
T4 sequence (P21397 1-527): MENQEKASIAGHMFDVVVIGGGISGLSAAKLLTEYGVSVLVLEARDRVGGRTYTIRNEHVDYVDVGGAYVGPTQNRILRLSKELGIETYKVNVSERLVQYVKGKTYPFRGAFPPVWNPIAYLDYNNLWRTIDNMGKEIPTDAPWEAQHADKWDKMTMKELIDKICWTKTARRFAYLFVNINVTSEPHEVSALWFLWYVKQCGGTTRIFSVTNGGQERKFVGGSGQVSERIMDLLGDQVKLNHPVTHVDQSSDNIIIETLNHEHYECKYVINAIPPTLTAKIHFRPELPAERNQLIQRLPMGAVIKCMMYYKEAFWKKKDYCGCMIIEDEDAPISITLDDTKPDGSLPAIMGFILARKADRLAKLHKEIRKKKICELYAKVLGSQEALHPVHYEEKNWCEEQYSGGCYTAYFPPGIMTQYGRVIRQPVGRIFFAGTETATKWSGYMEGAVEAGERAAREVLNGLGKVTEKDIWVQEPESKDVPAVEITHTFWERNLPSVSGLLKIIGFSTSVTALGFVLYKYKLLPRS
Method: as §2

PDE3A = target: T5, PDE3A (Homo sapiens, UniProt Q14432); test: as above; type: biochemical; conditions: % inhibition of control enzyme activity, read-out: Enzymatic Activity (%)
T5 construct: Eurofins Cerep (contract assay)
T5 sequence (Q14432 whole entry, species assumed): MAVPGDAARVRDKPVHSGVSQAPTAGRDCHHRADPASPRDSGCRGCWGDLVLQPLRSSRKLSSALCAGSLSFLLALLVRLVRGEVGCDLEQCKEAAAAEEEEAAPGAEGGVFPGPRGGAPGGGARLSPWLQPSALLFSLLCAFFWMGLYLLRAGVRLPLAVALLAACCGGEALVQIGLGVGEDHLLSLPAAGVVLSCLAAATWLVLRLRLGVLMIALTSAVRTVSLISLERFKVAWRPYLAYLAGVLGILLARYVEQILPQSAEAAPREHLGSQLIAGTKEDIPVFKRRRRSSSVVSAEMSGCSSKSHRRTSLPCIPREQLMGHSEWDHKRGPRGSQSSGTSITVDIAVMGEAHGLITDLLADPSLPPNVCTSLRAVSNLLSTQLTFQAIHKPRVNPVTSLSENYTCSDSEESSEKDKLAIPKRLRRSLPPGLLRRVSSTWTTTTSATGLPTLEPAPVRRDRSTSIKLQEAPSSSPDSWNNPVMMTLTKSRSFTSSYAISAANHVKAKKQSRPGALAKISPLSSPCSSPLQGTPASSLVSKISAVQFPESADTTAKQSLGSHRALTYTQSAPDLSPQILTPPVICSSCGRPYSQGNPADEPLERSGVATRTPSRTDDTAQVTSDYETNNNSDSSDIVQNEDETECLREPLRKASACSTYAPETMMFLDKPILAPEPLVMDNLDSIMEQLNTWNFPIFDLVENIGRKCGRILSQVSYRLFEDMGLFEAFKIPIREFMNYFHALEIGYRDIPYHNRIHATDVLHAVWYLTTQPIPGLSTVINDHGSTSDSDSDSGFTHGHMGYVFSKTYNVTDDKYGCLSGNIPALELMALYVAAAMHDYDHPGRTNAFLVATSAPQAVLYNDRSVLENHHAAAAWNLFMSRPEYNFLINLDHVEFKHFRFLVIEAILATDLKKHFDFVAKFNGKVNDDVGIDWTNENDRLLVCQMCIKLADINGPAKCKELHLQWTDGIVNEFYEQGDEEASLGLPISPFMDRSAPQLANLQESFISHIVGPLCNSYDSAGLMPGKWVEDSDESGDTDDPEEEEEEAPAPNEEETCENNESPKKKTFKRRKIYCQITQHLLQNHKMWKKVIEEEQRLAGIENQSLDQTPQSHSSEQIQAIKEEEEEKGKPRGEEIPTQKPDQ
Method: as §2

PDE4D2 = target: T6, PDE4D2 (Homo sapiens, UniProt Q08499); test: as above; type: biochemical; conditions: % inhibition of control enzyme activity, read-out: Enzymatic Activity (%)
T6 construct: Eurofins Cerep (contract assay)
T6 sequence (Q08499 303-809 limits assumed): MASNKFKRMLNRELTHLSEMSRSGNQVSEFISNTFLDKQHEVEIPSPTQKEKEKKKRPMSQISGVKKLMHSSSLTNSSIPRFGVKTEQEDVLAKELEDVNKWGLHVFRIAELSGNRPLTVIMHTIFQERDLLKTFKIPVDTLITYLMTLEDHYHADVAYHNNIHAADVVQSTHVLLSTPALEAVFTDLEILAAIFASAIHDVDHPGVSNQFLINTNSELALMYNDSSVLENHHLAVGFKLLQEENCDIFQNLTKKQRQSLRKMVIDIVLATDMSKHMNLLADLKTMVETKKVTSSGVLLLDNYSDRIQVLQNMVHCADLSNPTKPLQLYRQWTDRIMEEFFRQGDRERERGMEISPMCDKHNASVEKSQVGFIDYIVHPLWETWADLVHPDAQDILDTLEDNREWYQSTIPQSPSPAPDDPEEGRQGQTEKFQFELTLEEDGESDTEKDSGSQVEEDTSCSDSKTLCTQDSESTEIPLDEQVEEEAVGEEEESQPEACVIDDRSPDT
Method: as §2

CB1 = target: T7, CB1 (Homo sapiens, UniProt P21554); test: Selectivity profile (Eurofins Cerep), cellular agonist/antagonist effect; type: cell-based; conditions: 1 µM
T7 construct: Eurofins Cerep (contract assay)
T7 sequence (P21554 whole entry): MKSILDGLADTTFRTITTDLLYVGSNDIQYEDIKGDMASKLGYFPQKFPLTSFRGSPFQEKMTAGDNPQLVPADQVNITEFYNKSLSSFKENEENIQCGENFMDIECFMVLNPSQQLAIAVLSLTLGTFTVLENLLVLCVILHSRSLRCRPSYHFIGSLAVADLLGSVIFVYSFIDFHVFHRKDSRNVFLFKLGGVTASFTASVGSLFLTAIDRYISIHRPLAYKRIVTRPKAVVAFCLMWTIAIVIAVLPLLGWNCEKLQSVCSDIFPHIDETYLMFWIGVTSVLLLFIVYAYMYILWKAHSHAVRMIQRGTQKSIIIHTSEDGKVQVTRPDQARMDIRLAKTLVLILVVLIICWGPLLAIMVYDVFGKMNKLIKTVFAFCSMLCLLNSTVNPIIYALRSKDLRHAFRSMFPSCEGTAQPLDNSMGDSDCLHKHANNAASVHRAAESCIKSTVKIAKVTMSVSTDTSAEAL
Method: as §2

CB2 = target: T8, CB2 (Homo sapiens, UniProt P34972); test: as above; type: cell-based; conditions: 1 µM
T8 construct: Eurofins Cerep (contract assay)
T8 sequence (P34972 whole entry): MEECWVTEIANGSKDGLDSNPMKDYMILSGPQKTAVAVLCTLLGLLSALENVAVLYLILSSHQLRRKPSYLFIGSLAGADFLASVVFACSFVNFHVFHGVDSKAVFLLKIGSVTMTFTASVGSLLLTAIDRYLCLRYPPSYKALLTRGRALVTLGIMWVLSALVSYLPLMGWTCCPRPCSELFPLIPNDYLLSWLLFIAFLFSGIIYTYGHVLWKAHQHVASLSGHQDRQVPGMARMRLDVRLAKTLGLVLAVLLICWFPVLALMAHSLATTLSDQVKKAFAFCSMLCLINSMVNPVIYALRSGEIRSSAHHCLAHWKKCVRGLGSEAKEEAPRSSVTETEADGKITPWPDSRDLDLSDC
Method: as §2

D1 = target: T9, D1 (Homo sapiens, UniProt P21728); test: as above; type: cell-based; conditions: 1 µM
T9 construct: Eurofins Cerep (contract assay)
T9 sequence (P21728 whole entry): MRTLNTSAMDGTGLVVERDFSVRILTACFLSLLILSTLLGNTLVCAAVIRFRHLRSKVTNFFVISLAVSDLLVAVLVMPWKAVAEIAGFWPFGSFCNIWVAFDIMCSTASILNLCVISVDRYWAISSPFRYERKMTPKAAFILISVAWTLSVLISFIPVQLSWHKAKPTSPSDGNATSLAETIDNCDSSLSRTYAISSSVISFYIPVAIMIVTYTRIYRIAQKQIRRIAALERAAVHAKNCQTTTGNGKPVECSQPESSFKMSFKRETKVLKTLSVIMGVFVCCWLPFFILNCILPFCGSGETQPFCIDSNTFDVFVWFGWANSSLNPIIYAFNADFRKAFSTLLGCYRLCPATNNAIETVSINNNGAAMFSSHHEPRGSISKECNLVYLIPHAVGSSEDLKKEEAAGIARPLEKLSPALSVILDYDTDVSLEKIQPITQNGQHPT
Method: as §2

D2S = target: T10, D2S (Homo sapiens, UniProt P14416); test: as above; type: cell-based; conditions: 1 µM
T10 construct: Eurofins Cerep (contract assay)
T10 sequence (P14416 1-414 isoform P14416-2): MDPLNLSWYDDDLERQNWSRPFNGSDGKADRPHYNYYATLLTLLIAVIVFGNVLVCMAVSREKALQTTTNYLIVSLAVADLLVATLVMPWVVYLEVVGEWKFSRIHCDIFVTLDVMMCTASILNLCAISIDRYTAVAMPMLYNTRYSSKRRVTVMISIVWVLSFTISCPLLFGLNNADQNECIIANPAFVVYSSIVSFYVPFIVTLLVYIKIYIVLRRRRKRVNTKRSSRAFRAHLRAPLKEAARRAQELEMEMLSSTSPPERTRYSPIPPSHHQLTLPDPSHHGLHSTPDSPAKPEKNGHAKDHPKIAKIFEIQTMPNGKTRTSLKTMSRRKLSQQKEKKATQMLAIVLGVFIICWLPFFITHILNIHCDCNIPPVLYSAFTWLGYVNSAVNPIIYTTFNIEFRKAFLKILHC
Method: as §2

Delta (DOP) = target: T11, Delta (DOP) (Homo sapiens, UniProt P41143); test: as above; type: cell-based; conditions: 1 µM
T11 construct: Eurofins Cerep (contract assay)
T11 sequence (P41143 whole entry): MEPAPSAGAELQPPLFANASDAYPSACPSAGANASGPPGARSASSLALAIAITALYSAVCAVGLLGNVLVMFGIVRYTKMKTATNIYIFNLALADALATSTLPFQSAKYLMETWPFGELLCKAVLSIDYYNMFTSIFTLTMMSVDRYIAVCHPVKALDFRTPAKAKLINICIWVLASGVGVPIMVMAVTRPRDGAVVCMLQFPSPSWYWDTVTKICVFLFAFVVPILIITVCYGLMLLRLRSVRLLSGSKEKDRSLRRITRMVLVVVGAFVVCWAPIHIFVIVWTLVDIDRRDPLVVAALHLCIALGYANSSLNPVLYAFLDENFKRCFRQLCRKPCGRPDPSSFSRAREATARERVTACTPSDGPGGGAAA
Method: as §2

Kappa (KOP) = target: T12, Kappa (KOP) (Homo sapiens, UniProt P41145); test: as above; type: cell-based; conditions: 1 µM
T12 construct: Eurofins Cerep (contract assay)
T12 sequence (P41145 whole entry): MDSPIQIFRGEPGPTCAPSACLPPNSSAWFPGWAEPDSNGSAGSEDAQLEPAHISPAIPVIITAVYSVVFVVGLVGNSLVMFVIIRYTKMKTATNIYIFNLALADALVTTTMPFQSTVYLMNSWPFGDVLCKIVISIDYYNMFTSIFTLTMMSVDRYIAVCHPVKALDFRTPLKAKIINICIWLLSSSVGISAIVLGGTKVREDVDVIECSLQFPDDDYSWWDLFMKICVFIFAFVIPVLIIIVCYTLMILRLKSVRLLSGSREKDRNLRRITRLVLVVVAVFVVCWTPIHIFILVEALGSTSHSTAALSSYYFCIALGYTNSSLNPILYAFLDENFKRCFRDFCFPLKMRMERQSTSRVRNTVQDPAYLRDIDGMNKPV
Method: as §2

Mu (MOP) = target: T13, Mu (MOP) (Homo sapiens, UniProt P35372); test: as above; type: cell-based; conditions: 1 µM
T13 construct: Eurofins Cerep (contract assay)
T13 sequence (P35372 whole entry): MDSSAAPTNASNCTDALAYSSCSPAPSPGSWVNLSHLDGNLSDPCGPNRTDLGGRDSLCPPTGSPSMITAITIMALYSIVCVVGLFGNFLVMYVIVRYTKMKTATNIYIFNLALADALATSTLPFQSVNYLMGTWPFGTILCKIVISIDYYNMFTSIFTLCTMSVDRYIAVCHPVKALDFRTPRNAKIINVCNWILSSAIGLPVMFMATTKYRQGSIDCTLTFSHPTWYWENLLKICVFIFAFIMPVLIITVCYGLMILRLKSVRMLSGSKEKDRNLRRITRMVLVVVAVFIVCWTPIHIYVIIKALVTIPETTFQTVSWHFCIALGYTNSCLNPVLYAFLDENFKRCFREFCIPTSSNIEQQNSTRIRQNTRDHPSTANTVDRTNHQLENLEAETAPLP
Method: as §2

[5] = day 7 after sciatic nerve ligation, 500 µg/kg oral, 1 h later, n = 8
[6] = day 7 after sciatic nerve ligation, pretreatment self-control, n = 8
[7] = % inhibition of control reference agonist response
[8] = % of control response to reference agonist

somatostatin: native peptide released from capsaicin-sensitive sensory nerve terminals
Elimination half-life [1]: < 3 min

Cc1ccc(S(=O)(=O)N[C@@H](CCN)C(=O)N[C@@H](Cc2ccccc2)C(N)=O)c2ccccc12 [Compound J-2156]
Analgesic effect in partial sciatic nerve ligation model (Male NMRI mice [2]): potent and dose-dependent analgesic effects

c1ccc(CCNc2ncnc3c2ccn3Cc2ccccc2)cc1 [Compound 1, (7-Benzyl-7H-pyrrolo[2,3-d]pyrimidin-4-yl)-phenethyl-amine]
EC50 (sst4 receptor; 1 nM to 10 µM, n = 3): 0.037 µM | Emax (sst4 receptor; [35S]GTPγS binding, mean ± SEM, n = 3, read-out: Maximal activation over the basal activity of the receptor (efficacy)): 218% | Effect on acute neurogenic inflammatory heat hyperalgesia (Male NMRI mice [3]; at 10 and 30 min): significantly decreased | Effect on RTX-induced mechanical hyperalgesia (Male NMRI mice [3]; at 30 min): significantly decreased | Mechanonociceptive threshold of operated limb, 1 h after treatment (Male NMRI mice [4]; [5]): 8.53 ± 0.37 g | Neuropathic mechanical hyperalgesia, 1 h after treatment (Male NMRI mice [4]; [5]): 9.98% ± 3.92 | Mechanonociceptive threshold of operated limb, before treatment (Male NMRI mice [4]; [6]): 6.51 ± 0.18 g | Neuropathic mechanical hyperalgesia, before treatment (Male NMRI mice [4]; [6]): 31.22% ± 2.11 | Anti-hyperalgesic effect on neuropathic mechanical hyperalgesia (Male NMRI mice [4]; traumatic nerve injury, single oral 500 µg/kg): approximately 70% | Inhibition of radioligand binding (Ca2+ channel): 19.4% | Inhibition of radioligand binding (%) (K+ channel hERG): 23.6% | inhibition at 1 µM (COX-2): -10.4% | inhibition at 1 µM (MAOA): 2.7% | inhibition at 1 µM (PDE3A): -15% | inhibition at 1 µM (PDE4D2): -0.6% | Antagonist Effect (%) (CB1; [7]): −1.5% | Agonist Effect (%) (CB1; [8]): 30.8% | Antagonist Effect (%) (CB2; [7]): 7.7% | Agonist Effect (%) (CB2; [8]): 58.9% | Antagonist Effect (%) (D1; [7]): −10% | Agonist Effect (%) (D1; [8]): 3.3% | Antagonist Effect (%) (D2S; [7]): −11.5% | Agonist Effect (%) (D2S; [8]): 17.2% | Antagonist Effect (%) (Delta (DOP); [7]): −1.4% | Agonist Effect (%) (Delta (DOP); [8]): −0.3% | Antagonist Effect (%) (Kappa (KOP); [7]): 23.6% | Agonist Effect (%) (Kappa (KOP); [8]): −1.5% | Antagonist Effect (%) (Mu (MOP); [7]): 20.2% | Agonist Effect (%) (Mu (MOP); [8]): 5.5%
